Measurements reported in US20170182049A1, “NOVEL THERAPEUTICS FOR BRAIN CANCER” (The Regents of the University of California, priority 2012, published 2017).
“Also recorded” adds a separate entry of the source.

Assays:
[1] = system: U87 human GBM cells; assay: U87 viability (Alamar Blue); type: cell-based; conditions: for IC50, U87 viability: U87 express low amounts of Olig2
Procedure: (§1) Culture and assay system: Ink4a/arfEGFR-VIII mouse cells and U87 human GBM cells were cultured in DMEM medium with 10% FBS. GBM4 and GBM8 patient-derived tumor neurosphere lines were cultured in stem cell medium supplemented with FGF and EGF. Primary normal human astrocytes (NHA) were cultured in astrocyte medium (Life Technologies, Grand Island N.Y.) with EGF. Cytotoxicity of the compounds was assessed by […] (MTT) reduction assay (for Ink4a/arfEGFR-VIII cells) as described earlier (Rajesh M et al., Journal of the American Chemical Society 129:11408-11420 (2007)) or by Alamar Blue assay (for all other cell types). For the MTT reduction assay, Ink4a/arfEGFR-VIII cells were grown in 96-well plates at a concentration of ˜2000 cells per well overnight and all assays were conducted in DMEM medium with 10% FBS and additives. For studies with inhibitor compounds, 10 mM stocks were serially diluted in dimethyl sulfoxide and further diluted into culture media to give appropriate concentrations while minimizing precipitation associated with serial dilutions in medium alone. Inhibitors were added to cells and left in the media for 72 hours. Cell viability for Ink4a/arfEGFR VIII cells was quantified at 540 nm after the addition of MTT (Sigma-Aldrich). Results were expressed as: […]
(§2) For GBM4, GBM8, U87, and NHA cell lines, viability was quantified by Alamar Blue Assay. In this assay, cells were treated with inhibitor compounds as described and Alamar Blue added after 72 hours. Emission values at 590 nm were measured after the addition of Alamar Blue. Dose-response curves for MTT assays and Alamar Blue Assays were plotted and IC50 values were calculated by using GraphPad Prism (GraphPad Prism Software, Inc., La Jolla, Calif.).

[2] = system: normal human astrocytes (NHA); assay: primary astrocyte viability (Alamar Blue); type: cell-based; conditions: for IC50, primary astrocyte viability: astrocytes express low amounts of Olig2
Procedure: as §1, §2

[3] = system: p21; assay: expression of p21, direct genetic target of OLIG2 (qPCR); type: cell-based, human
Description: (§3) FIGS. 17A-17B. OLIG2 inhibitor affects expression of direct genetic targets of OLIG2. […] (FIG. 17A) Escalating OLIG2 inhibitor doses led to increased levels of p21.
(§4) mRNA was extracted from different cell lines with the AllPrep DNA/RNA Mini Kit (Qiagen, Inc.), followed by cDNA synthesis using the iScript cDNA Synthesis Kit (Bio-Rad, Inc). To investigate single-gene expression patterns, individual gene primers were purchased from Allele Biotechnology and Pharmaceuticals Inc. SYBR Green Real Time PCR master mixes were purchased from Roche Corporation. qPCR was performed with primers specific for OLIG2, p21, and OMG genes. Individual gene expression was normalized to expression of beta-Actin. Histograms show mean and standard error of the mean (SEM) from three separate experiments.

[4] = system: OMG; assay: expression of OMG, direct genetic target of OLIG2 (qPCR); type: cell-based, human
Description: as §3, §4

[5] = system: GBM4 cells; assay: GBM4 neurosphere viability (Alamar Blue); type: cell-based, human; conditions: grown as neurospheres, inhibitor given alone
Procedure: as §1, with “For studies with inhibitor compounds, 10 mM stocks were serially diluted in dimethyl sulfoxide and further diluted into culture media to give appropriate concentrations while minimizing precipitation associated with serial dilutions in medium alone. Inhibitors were added to cells and left in the media for 72 hours.” left out
as §2, with “In this assay, cells were treated with inhibitor compounds as described and Alamar Blue added after 72 hours.” left out

[6] = system: GBM8 cells; assay: GBM8 neurosphere viability (Alamar Blue); type: cell-based, human; conditions: grown as neurospheres, inhibitor given alone
Procedure: as §1, with “For studies with inhibitor compounds, 10 mM stocks were serially diluted in dimethyl sulfoxide and further diluted into culture media to give appropriate concentrations while minimizing precipitation associated with serial dilutions in medium alone. Inhibitors were added to cells and left in the media for 72 hours.” left out
as §2, with “In this assay, cells were treated with inhibitor compounds as described and Alamar Blue added after 72 hours.” left out

[7] = system: GBM4 neurospheres; assay: GBM4 neurosphere formation, light microscopy; type: cell-based, human; conditions: 0.1 uM and 5 uM, 72 h
[8] = GBM4 cells, escalating doses (18 h in FIG. 17)

IC50, U87 viability [1] | Structure (SMILES) | IC50, primary astrocyte viability [2] | P21 levels ([3]; FIG. 6, relative to vehicle control) | levels of OMG ([4]; FIG. 7, relative to vehicle control) | suppression of GBM4 cells [5] | suppression of GBM8 cells [6] | suppression of U87 cells ([1]; compared with GBM4/8 cells) | IC50 of NHA relative to GBM4 cells ([2]; NHA vs GBM4) [fold] | inhibition of neurosphere formation in GBM4 cells (active / inactive compound) [7] | expression of p21 [3, 8] | expression of OMG [4, 8]
high | CCN1CCCC(Nc2cc(C)nc(NC(=N)Nc3ccc(Cl)c(Cl)c3)n2)C1 (stereo not shown) [SKOG-101] | high | rose markedly | went down markedly |  |  |  |  |  |  | 
high | CCN1CCCC(Nc2cc(C)nc(NC(=N)Nc3ccc(Cl)c(Cl)c3)n2)C1 (stereo not shown) [SKOG-102] | high |  |  | markedly suppressed; also recorded: active | markedly suppressed; also recorded: active | a higher dose was needed | ~20 | active | increased in a dose-dependent manner | suppressed; also recorded: decline
